The record followed here is ChEMBL document CHEMBL5500383, “Recent advances and future directions on small molecule VEGFR inhibitors in oncological conditions” (Eur J Med Chem, 2024).

As a reminder, the IC50 is the concentration at which inhibition is half-maximal.

Molecules are shown by their SMILES. In brackets after ≈: the same amount, converted by molar mass.

For data set [1], the system named is HepG2. Put plainly: Antiproliferative activity against human HepG2 cells assessed as reduction in cell viability incubated for 24 hrs by MTT assay. It is filed as functional, cell-based. Particulars: HepG2, 24 h. Background: Tetrazolium assays rely on reduction of a dye to a coloured formazan, in cell work by metabolically active cells.
Data set [2] concerns PC-3. Put plainly: Antiproliferative activity against human PC-3 cells assessed as reduction in cell viability incubated for 24 hrs by MTT assay. Format: functional, cell-based. Conditions: PC-3, 24 h.
The subject of data set [3] is MCF7. Description: Antiproliferative activity against human MCF7 cells assessed as reduction in cell viability incubated for 24 hrs by MTT assay. Format: functional, cell-based. Particulars: MCF7, 24 h.
Data set [4] addresses T1, Vascular endothelial growth factor receptor 2 (Homo sapiens, UniProt P35968). Put plainly: Inhibition of human VEGFR2 by discoverX kinome scan assay.
Data set [5] in a line: Cytotoxicity against HUVEC cells assessed as cell growth inhibition incubated for 72 hrs by MTT assay. It is filed as toxicity, cell-based. Particulars: human.
The target of data set [6] is T1, Vascular endothelial growth factor receptor 2. Description: Inhibition of VEGFR2 (unknown origin) by kinase profiling assay.
The subject of data set [7] is MCF7. Put plainly: Antiproliferative activity against human MCF7 cells assessed as reduction in cell viability. Format: functional, cell-based.
For data set [8], the target named is T1, Vascular endothelial growth factor receptor 2. Description: Inhibition of VEGFR2 (unknown origin).
Data set [9] has as its target Serine/threonine-protein kinase B-raf (Homo sapiens, UniProt P15056). Description: Inhibition of wild type BRAF (unknown origin).
In data set [10] the target is Serine/threonine-protein kinase B-raf (Homo sapiens, UniProt P15056, V600E). Description: Inhibition of BRAF V600E mutant (unknown origin).
Sequence of Serine/threonine-protein kinase B-raf (Homo sapiens, UniProt P15056, V600E) (P15056 2-766 V600E limits assumed): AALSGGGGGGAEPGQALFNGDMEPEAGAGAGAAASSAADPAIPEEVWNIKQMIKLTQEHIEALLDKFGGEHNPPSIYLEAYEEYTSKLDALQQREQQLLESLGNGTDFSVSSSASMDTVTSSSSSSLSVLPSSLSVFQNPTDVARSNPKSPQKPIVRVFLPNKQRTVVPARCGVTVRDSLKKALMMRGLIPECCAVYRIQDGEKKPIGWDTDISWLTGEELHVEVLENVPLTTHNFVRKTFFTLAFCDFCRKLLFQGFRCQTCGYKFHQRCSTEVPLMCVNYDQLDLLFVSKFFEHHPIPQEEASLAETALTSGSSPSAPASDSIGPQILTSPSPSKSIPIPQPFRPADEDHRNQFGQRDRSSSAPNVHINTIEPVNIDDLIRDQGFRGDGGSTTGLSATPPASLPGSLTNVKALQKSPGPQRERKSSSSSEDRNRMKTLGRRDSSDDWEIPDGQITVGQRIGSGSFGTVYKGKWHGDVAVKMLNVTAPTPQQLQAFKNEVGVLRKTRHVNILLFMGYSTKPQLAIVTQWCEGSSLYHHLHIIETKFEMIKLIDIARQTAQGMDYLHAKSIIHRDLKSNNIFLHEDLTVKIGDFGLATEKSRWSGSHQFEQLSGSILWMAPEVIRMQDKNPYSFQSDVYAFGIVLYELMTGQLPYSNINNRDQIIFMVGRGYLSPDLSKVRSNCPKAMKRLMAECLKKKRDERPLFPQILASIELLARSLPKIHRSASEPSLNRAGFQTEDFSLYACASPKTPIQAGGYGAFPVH
The target of data set [11] is Epidermal growth factor receptor (Homo sapiens, UniProt P00533). Put plainly: Inhibition of EGFR (unknown origin) by DiscoverX KINOMEscan assay.
Sequence of Epidermal growth factor receptor (P00533 whole entry): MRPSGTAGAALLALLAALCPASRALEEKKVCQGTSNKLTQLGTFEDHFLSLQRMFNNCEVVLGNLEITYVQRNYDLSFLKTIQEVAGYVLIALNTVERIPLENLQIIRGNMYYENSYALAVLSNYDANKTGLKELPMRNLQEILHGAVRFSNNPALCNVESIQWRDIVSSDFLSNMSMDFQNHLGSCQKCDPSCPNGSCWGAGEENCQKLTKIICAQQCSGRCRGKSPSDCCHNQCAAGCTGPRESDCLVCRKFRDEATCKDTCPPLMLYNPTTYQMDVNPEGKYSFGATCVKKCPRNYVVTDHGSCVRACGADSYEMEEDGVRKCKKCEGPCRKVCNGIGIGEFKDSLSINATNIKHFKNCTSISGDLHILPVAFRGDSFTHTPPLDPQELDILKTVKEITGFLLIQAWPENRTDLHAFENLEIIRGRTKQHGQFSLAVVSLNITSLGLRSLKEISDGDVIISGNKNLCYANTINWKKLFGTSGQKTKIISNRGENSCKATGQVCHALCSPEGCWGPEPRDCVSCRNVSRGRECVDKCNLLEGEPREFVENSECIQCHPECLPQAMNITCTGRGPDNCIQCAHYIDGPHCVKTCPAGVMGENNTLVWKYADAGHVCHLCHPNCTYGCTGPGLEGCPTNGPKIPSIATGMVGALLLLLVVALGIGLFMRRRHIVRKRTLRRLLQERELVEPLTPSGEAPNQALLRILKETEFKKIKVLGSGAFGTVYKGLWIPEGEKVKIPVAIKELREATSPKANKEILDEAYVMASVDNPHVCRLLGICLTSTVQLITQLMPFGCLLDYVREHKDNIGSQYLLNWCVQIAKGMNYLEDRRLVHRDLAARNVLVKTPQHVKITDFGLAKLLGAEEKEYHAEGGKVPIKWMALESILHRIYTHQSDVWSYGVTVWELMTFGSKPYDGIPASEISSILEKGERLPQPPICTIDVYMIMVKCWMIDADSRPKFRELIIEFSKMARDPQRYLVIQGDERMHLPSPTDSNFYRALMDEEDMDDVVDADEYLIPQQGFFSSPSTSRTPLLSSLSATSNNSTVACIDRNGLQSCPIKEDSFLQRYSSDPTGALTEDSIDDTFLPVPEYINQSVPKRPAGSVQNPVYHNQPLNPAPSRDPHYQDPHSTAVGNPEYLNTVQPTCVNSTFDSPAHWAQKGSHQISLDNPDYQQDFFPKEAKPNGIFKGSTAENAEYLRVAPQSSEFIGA
For data set [12], the system named is MCF7. Put plainly: Antiproliferative activity against human MCF7 cells assessed as cell growth inhibition measured for 24 hrs by MTT assay. It is filed as functional, cell-based. Conditions: MCF7, 24 h.
Data set [13] has as its system HepG2. Description: Antiproliferative activity against human HepG2 cells assessed as cell growth inhibition measured for 24 hrs by MTT assay. Conditions: HepG2, 24 h. It is filed as functional, cell-based.
In data set [14] the test system is A549. Put plainly: Antiproliferative activity against human A549 cells assessed as cell growth inhibition measured for 24 hrs by MTT assay. Format: functional, cell-based. Particulars: A549, 24 h.
Data set [15] can be described thus: Cytotoxicity against human WI-38 cells assessed as reduction in cell growth. It is filed as toxicity, cell-based.
In a further data set the test system is HL-60. Description: Cytotoxicity against human HL-60 cells assessed as reduction in cell growth. It is filed as functional, cell-based.
For a further data set, the system named is T47D. Description: Antiproliferative activity against human T47D cells assessed as growth inhibition at 10 uM after 48 hrs by sulforhodamine B assay relative to control. It is filed as functional. Further details: scale not given: the % may be the effect or the level left. In general terms: The SRB assay estimates cell density from bound dye.
A further data set has as its system A498. Description: Antiproliferative activity against human A498 cells assessed as growth inhibition at 10 uM after 48 hrs by sulforhodamine B assay relative to control. Format: functional. Also noted: scale not given: the % may be the effect or the level left.
Data set [16] concerns the target T1, Vascular endothelial growth factor receptor 2. Description: Inhibition of VEGFR2 (unknown origin) by Z'-Lyte kinase assay.
For data set [17], the system named is HepG2. Description: Cytotoxicity against human HepG2 cells assessed as inhibition of cell growth incubated for 48 hrs by MTT assay. Conditions: HepG2, 48 h. Format: functional, cell-based.
The test system of the next data set is HCT-116. Put plainly: Cytotoxicity against human HCT-116 cells assessed as inhibition of cell growth incubated for 48 hrs by MTT assay. It is filed as functional, cell-based. Particulars: HCT-116, 48 h.
The subject of data set [18] is MCF7. Description: Cytotoxicity against human MCF7 cells assessed as inhibition of cell growth incubated for 48 hrs by MTT assay. It is filed as functional, cell-based. Conditions: MCF7, 48 h.
In data set [19] the test system is PC-3. Put plainly: Cytotoxicity against human PC-3 cells assessed as inhibition of cell growth incubated for 48 hrs by MTT assay. Particulars: PC-3, 48 h. Format: functional, cell-based.
Data set [20] has as its system A549. Description: Antiproliferative activity against human A549 cells assessed as reduction in cell viability. Format: functional, cell-based.
For a further data set, the system named is NCI-H441. Put plainly: Antiproliferative activity against human NCI-H441 cells assessed as reduction in cell viability. It is filed as functional, cell-based.
Another data set deals with NCI-H1650. Description: Antiproliferative activity against human NCI-H1650 cells assessed as reduction in cell viability. It is filed as functional, cell-based.
The test system of a further data set is NCI-H1975. Description: Antiproliferative activity against human NCI-H1975 cells assessed as reduction in cell viability. It is filed as functional, cell-based.
Data set [21] has as its target RAF proto-oncogene serine/threonine-protein kinase (Homo sapiens, UniProt P04049). Description: Inhibition of C-RAF (unknown origin).
Data set [22] in a line: Inhibition of VEGFR (unknown origin). Also noted: species or system Homo sapiens.
A further data set has as its target Histone deacetylase 4 (Homo sapiens, UniProt P56524). Description: Inhibition of HDAC4 (unknown origin).
Data set [23] has as its target T2, Protein deacetylase HDAC6 (Homo sapiens, UniProt Q9UBN7).
T2 sequence (Q9UBN7 whole entry): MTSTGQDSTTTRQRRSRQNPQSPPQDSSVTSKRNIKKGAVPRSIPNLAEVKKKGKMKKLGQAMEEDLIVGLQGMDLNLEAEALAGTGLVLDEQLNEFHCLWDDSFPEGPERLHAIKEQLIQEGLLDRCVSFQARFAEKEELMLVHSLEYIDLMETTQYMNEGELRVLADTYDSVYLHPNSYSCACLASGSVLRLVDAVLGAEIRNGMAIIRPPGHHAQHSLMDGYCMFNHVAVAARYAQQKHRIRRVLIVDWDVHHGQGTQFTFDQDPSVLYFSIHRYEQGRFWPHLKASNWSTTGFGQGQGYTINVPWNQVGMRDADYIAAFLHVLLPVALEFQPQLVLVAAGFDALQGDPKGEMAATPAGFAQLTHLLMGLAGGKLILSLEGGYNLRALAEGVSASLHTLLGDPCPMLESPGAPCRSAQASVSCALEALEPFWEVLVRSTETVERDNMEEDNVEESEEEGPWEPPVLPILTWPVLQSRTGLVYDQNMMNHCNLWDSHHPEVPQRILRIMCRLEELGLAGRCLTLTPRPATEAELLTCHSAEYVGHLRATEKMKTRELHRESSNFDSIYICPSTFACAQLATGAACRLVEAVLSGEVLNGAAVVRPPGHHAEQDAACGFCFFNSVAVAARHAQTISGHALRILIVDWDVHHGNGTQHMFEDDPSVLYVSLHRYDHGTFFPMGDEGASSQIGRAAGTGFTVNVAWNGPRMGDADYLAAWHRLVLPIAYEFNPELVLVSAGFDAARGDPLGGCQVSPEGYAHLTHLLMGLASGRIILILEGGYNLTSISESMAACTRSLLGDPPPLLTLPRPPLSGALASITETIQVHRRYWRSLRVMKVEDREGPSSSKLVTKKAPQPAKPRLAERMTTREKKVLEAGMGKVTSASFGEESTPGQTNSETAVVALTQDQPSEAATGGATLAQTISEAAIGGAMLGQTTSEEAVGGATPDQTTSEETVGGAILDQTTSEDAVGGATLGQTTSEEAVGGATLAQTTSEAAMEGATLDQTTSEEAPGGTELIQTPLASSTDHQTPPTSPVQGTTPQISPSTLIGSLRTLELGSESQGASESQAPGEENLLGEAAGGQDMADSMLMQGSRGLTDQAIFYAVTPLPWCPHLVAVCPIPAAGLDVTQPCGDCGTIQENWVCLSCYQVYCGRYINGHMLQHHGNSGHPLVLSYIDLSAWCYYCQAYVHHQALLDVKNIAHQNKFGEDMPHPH
Put plainly: Inhibition of HDAC6 (unknown origin).

In data set [24] the target is Vascular endothelial growth factor receptor 1 (Homo sapiens, UniProt P17948). Description: Inhibition of VEGFR1 (unknown origin).
Sequence of Vascular endothelial growth factor receptor 1 (P17948 whole entry): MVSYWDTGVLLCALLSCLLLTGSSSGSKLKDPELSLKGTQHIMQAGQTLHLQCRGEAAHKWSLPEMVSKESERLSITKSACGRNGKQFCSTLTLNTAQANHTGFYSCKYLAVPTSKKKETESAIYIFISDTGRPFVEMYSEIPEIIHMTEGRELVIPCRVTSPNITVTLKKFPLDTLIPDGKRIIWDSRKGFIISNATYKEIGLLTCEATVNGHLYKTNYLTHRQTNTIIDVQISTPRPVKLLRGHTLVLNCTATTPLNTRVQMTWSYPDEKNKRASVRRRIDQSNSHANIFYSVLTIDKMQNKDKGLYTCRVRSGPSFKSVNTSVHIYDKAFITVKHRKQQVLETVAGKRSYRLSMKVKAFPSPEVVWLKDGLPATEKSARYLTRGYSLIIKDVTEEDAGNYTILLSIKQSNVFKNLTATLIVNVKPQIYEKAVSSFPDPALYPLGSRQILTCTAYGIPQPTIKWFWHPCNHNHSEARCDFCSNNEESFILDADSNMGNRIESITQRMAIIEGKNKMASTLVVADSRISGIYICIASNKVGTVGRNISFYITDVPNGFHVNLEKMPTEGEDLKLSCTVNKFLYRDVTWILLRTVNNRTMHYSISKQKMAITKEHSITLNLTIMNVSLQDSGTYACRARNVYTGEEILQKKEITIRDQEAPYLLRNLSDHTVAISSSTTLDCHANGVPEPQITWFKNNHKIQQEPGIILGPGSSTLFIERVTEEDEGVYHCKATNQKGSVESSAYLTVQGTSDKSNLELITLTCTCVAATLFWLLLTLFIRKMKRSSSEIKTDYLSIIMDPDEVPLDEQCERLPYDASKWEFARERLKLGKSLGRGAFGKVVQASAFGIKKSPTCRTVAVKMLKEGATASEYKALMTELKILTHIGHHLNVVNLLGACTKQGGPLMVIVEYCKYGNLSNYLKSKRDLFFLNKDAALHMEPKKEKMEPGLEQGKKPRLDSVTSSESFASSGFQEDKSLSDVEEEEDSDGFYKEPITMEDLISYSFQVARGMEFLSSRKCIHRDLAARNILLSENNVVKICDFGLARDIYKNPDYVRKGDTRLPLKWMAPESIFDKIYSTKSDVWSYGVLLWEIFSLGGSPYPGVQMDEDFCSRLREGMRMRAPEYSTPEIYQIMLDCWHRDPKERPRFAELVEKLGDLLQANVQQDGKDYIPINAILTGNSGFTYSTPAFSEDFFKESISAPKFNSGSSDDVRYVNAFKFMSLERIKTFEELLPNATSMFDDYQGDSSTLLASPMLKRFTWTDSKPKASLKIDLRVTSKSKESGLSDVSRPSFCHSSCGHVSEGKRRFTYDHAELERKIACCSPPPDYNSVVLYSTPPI
Data set [25] concerns the target Vascular endothelial growth factor receptor 3 (Homo sapiens, UniProt P35916). Description: Inhibition of VEGFR3 (unknown origin).

T1 sequence (P35968 whole entry): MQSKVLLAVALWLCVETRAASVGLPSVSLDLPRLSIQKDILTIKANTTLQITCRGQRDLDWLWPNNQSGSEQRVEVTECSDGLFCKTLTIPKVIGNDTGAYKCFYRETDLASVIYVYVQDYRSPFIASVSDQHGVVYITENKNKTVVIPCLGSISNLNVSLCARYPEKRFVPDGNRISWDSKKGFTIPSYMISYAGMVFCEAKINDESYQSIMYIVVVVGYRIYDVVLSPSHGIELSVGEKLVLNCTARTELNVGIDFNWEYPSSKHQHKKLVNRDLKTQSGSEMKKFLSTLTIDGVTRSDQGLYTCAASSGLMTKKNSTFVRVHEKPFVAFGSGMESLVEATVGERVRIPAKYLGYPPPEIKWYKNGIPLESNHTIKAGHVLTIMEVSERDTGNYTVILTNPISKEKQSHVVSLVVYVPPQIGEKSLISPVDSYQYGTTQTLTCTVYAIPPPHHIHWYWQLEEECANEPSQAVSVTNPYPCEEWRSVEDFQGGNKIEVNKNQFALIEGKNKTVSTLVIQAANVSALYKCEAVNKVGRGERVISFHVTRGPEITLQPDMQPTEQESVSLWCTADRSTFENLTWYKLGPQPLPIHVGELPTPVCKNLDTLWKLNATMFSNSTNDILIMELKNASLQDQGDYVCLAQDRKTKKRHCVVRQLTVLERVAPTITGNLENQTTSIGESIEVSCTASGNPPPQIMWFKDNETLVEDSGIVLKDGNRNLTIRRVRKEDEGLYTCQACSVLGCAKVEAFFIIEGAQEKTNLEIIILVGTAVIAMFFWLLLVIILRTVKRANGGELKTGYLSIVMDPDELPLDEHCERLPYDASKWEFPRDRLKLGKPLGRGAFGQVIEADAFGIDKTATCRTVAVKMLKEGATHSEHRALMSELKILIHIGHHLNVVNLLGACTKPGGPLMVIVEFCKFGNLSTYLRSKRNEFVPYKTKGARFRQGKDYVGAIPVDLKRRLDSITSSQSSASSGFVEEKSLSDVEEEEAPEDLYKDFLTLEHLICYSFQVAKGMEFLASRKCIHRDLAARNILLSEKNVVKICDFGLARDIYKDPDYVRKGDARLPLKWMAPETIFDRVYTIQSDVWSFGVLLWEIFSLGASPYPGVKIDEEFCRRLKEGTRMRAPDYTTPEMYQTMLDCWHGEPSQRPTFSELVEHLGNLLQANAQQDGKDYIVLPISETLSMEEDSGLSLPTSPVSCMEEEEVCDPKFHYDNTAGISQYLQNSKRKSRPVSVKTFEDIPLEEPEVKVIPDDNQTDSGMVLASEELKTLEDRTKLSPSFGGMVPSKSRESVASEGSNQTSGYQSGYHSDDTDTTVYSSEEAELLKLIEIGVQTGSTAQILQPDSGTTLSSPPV

Turning to `CCn1c(SCC(=O)NNC(=O)c2ccccc2)nc2ccc([N+](=O)[O-])cc2c1=O`, the IC50 in the data set with HepG2 [1] was 17.2 µg/mL (≈ 40.3 µM); in the data set on PC-3 [2], 26.1 µg/mL (≈ 61.1 µM); with MCF7 [3], 30.8 µg/mL (≈ 72.2 µM).
On to `COc1ccc(-c2cc3c(ccn4nc(-c5cccnc5)nc34)o2)cc1`, for which the IC50 in data set [4] and in data set [6] was 38.7 µM throughout. The IC50 at 72 h in [5] is 17.4 µM.
Regarding `COCCOCCOCCOCCOCCOC(=O)c1cc(C(=O)OCCOCCOCCOCCOCCOC)cc(-n2cc(Cn3ncc4ccccc4c3=O)nn2)c1`, the IC50 in the data set with MCF7 [7] is 8.84 µM.
As for `O=C(CSc1nc2sc3c(c2c(=O)n1-c1ccc(Cl)cc1)CCCC3)NNC(=O)Nc1ccc(Cl)c(C(F)(F)F)c1`, the IC50 in [8] came out at 49 nM; in data set [9] it was 50 nM; in [10] it was 63 nM.
With `CCOC(=O)/C(C#N)=C(\c1ccc(O)cc1)N1CC(=O)N(/N=C(\C)c2ccc(O)cc2O)C1=S`, the IC50 in [11] was 11.4 µM; with MCF7 [12], 1630 nM; with HepG2 [13] it was 2440 nM; with A549 [14], 1270 nM.
For `COc1ccc(-c2nc3c4cc(-c5ccc(OC)cc5)oc4ccn3n2)cc1`, the half-maximal inhibitory concentration (IC50) in [4] and in data set [6] was 58 µM in each case. Besides, the IC50 at 72 h in data set [5] is 22.6 µM.
Regarding `C/C(=N\NC(=S)Nc1ccccc1)c1nnn(-c2ccc(F)cc2)c1C`, the concentration for half-maximal inhibition (IC50) in data set [8] came out at 67 nM; in data set [15] it was 56.6 µM; with HL-60 it was 1090 nM.
Turning to `O=C(Nc1ccccc1)Nc1ccc(Nc2ncnc3sc4c(c23)CCOC4)cc1`, the results for the Activity in the data set with T47D and with A498 were 85.5% and 77.65%, respectively.
In the case of `O=C1C(=O)N(CN2CCN(c3cc(=O)[nH]c4ccc(F)cc34)CC2)c2ccccc21`, the half-maximal inhibitory concentration (IC50) in data set [16] is 63.8 nM.
On to `O=C(NC1=NN2C(=O)/C(=C/c3ccco3)N=C2S1)c1cccs1`, for which the 50% inhibitory concentration (IC50) in [8] came to 9400 nM; in the data set with HepG2 [17], 6.8 µM; in the data set on HCT-116 it was 5.26 µM; in the data set on MCF7 [18], 4.36 µM; in the data set on PC-3 [19], 8.01 µM.
For the compound `COc1ccc(C2CC(c3ccc(Cl)cc3Cl)=NN2c2nc(C)c(C(=O)Nc3ccccc3)s2)cc1OC` (centres undefined), the IC50 was determined as 2920 nM in the data set with A549 [20], 3.8 µM in the data set with NCI-H441, 3.54 µM with NCI-H1650 and 4.41 µM in the data set on NCI-H1975.
With `COc1ccc(-n2c(SCC(=O)Nc3ccc(-c4nc5ccccc5[nH]4)cc3)nc3ccccc3c2=O)cc1`, the IC50 is more than 100000 nM in data set [10], more than 100 µM in data set [21] and 20.6 µM in data set [22].
Regarding `CCCNNC(=O)c1ccc(Nc2nccc(N(C)c3ccc4c(C)n(C)nc4c3)n2)cc1`, the IC50 on Histone deacetylase 4 was more than 10 µM; in data set [23], 8.96 µM; in [24], 34 nM; in [25], 37 nM.
